From patent publication US8835458B2 (Hanmi Science Co., Ltd, priority 2010, dated 2014)
Where a name gives a salt, the structure may show the parent alone. Read-outs that look alike come from different tables or passages of the source.

Key:
[1] = Toxicity to normal cells (SRB); format: cell-based, human; conditions: human, Hs27 fibroblasts (normal cell line)
In short: (§1)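 Cells seeded at 3,000˜5,000 cells/100 μL, grown 24 h at 37° C (MDA-MB-231 under atmospheric conditions), then exposed to 10 μM˜0.1 nM compound. MDA-MB-231 cultured 120 h, read by MTS at 490 nm; fibroblasts cultured 72 h, TCA-fixed, SRB-stained, read at 540 nm. GI50 from growth relative to untreated and medium-only cells.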

[2] = Toxicity to normal cells (SRB); format: cell-based, mouse; conditions: mouse, Balb/c3t3 fibroblasts (normal cell line), read-out: BalB/C (GI50)
In short: as §1

[3] = test system: MDA-MB-231 breast cancer cell lines; assay: Evaluation of inhibition on cell growth (MTS); format: cell-based; conditions: Homo sapiens, MDA-MB-231, 120 hours
In short: as §1

SMILES	GI50 at 72 h [1]	GI50 at 72 h [2]	GI50 [3]
CCN1CCN(c2ccc(Nc3ncnc4cc(OC)c(NC(=O)[C@@H]5CCCN5C(=O)[C@@H](NC(=O)[C@H](C)NC)C(C)(C)C)cc34)cc2F)CC1 [Example 71, (S)-1-((S)-3,3-dimethyl-2-((S)-2-(methylamino)propanamido)butanoyl)-N-(4-(4-(4-ethylpiperazin-1-yl)-3-fluorophenylamino)-7-methoxyquinazolin-6-yl)pyrrolidine-2-carboxamide dihydrochloride]	> 10 µM	> 10 µM	≤ 0.1 µM
C#CCO[C@H](C)[C@H](NC(=O)[C@H](C)NC)C(=O)N1CCC[C@H]1C(=O)Nc1cc2c(Nc3ccc(F)c(Cl)c3F)ncnc2cc1OC [Example 45, (S)—N-(4-(3-chloro-2,4-difluorophenylamino)-7-methoxyquinazolin-6-yl)-1-((2S,3R)-2-((S)-2-(methylamino)propanamido)-3-(prop-2-ynyloxy)butanoyl)pyrrolidine-2-carboxamide hydrochloride]	> 10 µM	> 10 µM	≤ 0.1 µM
CN[C@@H](C)C(=O)N[C@H](C(=O)N1CCC[C@H]1C(=O)Nc1cc2c(Nc3ccc(OCc4cccc(F)c4)c(Cl)c3)ncnc2cc1OC)C(C)(C)C [Example 37, (S)—N-(4-(3-chloro-4-(3-fluorobenzyloxy)phenylamino)-7-methoxyquinazolin-6-yl)-1-((S)-3,3-dimethyl-2-((S)-2-(methylamino)propanamido)butanoyl)pyrrolidine-2-carboxamide hydrochloride]	> 10 µM	> 10 µM	≤ 0.1 µM
CN[C@@H](C)C(=O)N[C@H](C(=O)N1CCC[C@H]1C(=O)Nc1cc2c(NC3CCCCC3)ncnc2cc1OC)C(C)(C)C [Example 38, (S)—N-(4-(cyclohexylamino)-7-methoxyquinazolin-6-yl)-1-((S)-3,3-dimethyl-2-((S)-2-(methylamino)propanamido)butanoyl)pyrrolidine-2-carboxamide hydrochloride]	> 10 µM	> 10 µM	≤ 0.1 µM
CN[C@@H](C)C(=O)N[C@H](C(=O)N1CCC[C@H]1C(=O)Nc1cc2c(Nc3ccccc3Cl)ncnc2cc1OC)C(C)(C)C [Example 21, (S)—N-(4-(2-chlorophenylamino)-7-methoxyquinazolin-6-yl)-1-((S)-3,3-dimethyl-2-((S)-2-(methylamino)propanamido)butanoyl)pyrrolidine-2-carboxamide hydrochloride]	> 10 µM	> 10 µM	≤ 0.1 µM
CN[C@@H](C)C(=O)N[C@H](C(=O)N1CCC[C@H]1C(=O)Nc1cc2c(Nc3ccc(F)c(Cl)c3)ncnc2cc1OCCOC)C(C)(C)C [Example 5, (S)—N-(4-(3-chloro-4-fluorophenylamino)-7-(2-methoxyethoxy)quinazolin-6-yl)-1-((S)-3,3-dimethyl-2-((S)-2-(methylamino)propanamido)butanoyl)pyrrolidine-2-carboxamide hydrochloride]	> 10 µM	> 10 µM	0.1 to 1 µM
CN[C@@H](C)C(=O)N[C@H](C(=O)N1CCC[C@H]1C(=O)Nc1cc2c(Nc3cc(NC(C)=O)ccc3Cl)ncnc2cc1OC)C(C)(C)C [Example 75, (S)—N-(4-(5-acetamino-2-chlorophenylamino)-7-methoxyquinazolin-6-yl)-1-((S)-3,3-dimethyl-2-((S)-2-(methylamino)propanamido)butanoyl)pyrrolidine-2-carboxamide]	> 10 µM	> 10 µM	≤ 0.1 µM
CN[C@@H](C)C(=O)N[C@H](C(=O)N1CCC[C@H]1C(=O)Nc1cc2c(N[C@@H](C)c3ccccc3)ncnc2cc1OC)C(C)(C)C [Example 34, (S)-1-((S)-3,3-dimethyl-2-((S)-2-(methylamino)propanamido)butanoyl)-N-(7-methoxy-4-((S)-1-phenylmethylamino)quinazolin-6-yl)pyrrolidine-2-carboxamide hydrochloride]	> 10 µM	> 10 µM	≤ 0.1 µM
CNC(=O)c1ccc(Nc2ncnc3cc(OC)c(NC(=O)[C@@H]4CCCN4C(=O)[C@@H](NC(=O)[C@H](C)NC)C(C)(C)C)cc23)cc1 [Example 74, (S)-1-((S)-3,3-dimethyl-2-((S)-2-(methylamino)propanamido)butanoyl)-N-(7-methoxy-4-(4-(methylcarbamoyl)phenylamino)quinazolin-6-yl)pyrrolidine-2-carboxamide]	> 10 µM	> 10 µM	≤ 0.1 µM
CN[C@@H](C)C(=O)N[C@H](C(=O)N1CCC[C@H]1C(=O)Nc1cc2c(N)ncnc2cc1OC)C(C)(C)C [Example 36, (S)—N-(4-amino-7-methoxyquinazolin-6-yl)-1-((S)-3,3-dimethyl-2-((S)-2-(methylamino)propanamido)butanoyl)pyrrolidine-2-carboxamide]	> 10 µM	> 10 µM	0.1 to 1 µM
CN[C@@H](C)C(=O)N[C@H](C(=O)N1CCC[C@H]1C(=O)Nc1cc2c(Nc3ccc4ncccc4c3)ncnc2cc1OC)C(C)(C)C [Example 53, (S)-1-((S)-3,3-dimethyl-2-((S)-2-(methylamino)propanamido)butanoyl)-N-(7-methoxy-4-(quinoline-6-ylamino)quinazolin-6-yl)pyrrolidine-2-carboxamide]	> 10 µM	> 10 µM	≤ 0.1 µM
CN[C@@H](C)C(=O)N[C@H](C(=O)N1CCC[C@H]1C(=O)Nc1cc2c(Nc3ccc(F)c(Cl)c3F)ncnc2cc1OCCOC)C(C)(C)C [Example 6, (S)—N-(4-(3-chloro-2,4-difluorophenylamino)-7-(2-methoxyethoxy)quinazolin-6-yl)-1-((S)-3,3-dimethyl-2-((S)-2-(methylamino)propanamido)butanoyl)pyrrolidine-2-carboxamide hydrochloride]	> 10 µM	> 10 µM	0.1 to 1 µM
CN[C@@H](C)C(=O)N[C@H](C(=O)N1CCC[C@H]1C(=O)Nc1cc2c(N(C)c3ccccc3)ncnc2cc1OC)C(C)(C)C [Example 31, (S)-1-((S)-3,3-dimethyl-2-((S)-2-(methylamino)propanamido)butanoyl)-N-(7-methoxy-4-(methyl(phenyl)amino)quinazolin-6-yl)pyrrolidine-2-carboxamide hydrochloride]	> 10 µM	> 10 µM	≤ 0.1 µM
CN[C@@H](C)C(=O)N[C@H](C(=O)N1C[C@H](OCc2ccccc2)C[C@H]1C(=O)Nc1cc2c(Nc3ccc(F)c(Cl)c3F)ncnc2cc1OC)C(C)(C)C [Example 46, (2S,4R)-4-(benzyloxy)-N-(4-(3-chloro-2,4-difluorophenylamino)-7-methoxyquinazolin-6-yl)-1-((S)-3,3-dimethyl-2-((S)-2-(methylamino)propanamido)butanoyl)pyrrolidine-2-carboxamide hydrochloride]	> 10 µM	> 10 µM	≤ 0.1 µM
CN[C@@H](C)C(=O)N[C@H](C(=O)N1CCC[C@H]1C(=O)Nc1cc2c(Nc3cccc(Cl)c3F)ncnc2cc1OC)C(C)(C)C.Cl [Example 7, hydrochloride]	> 10 µM	> 10 µM	≤ 0.1 µM
CN[C@@H](C)C(=O)N[C@H](C(=O)N1CCC[C@H]1C(=O)Nc1cc2c(Nc3cccc(F)c3F)ncnc2cc1OC)C(C)(C)C [Example 42, (S)—N-(4-(2,3-difluorophenylamino)-7-methoxyquinazolin-6-yl)-1-((S)-3,3-dimethyl-2-((S)-2-(methylamino)propanamido)butanoyl)pyrrolidine-2-carboxamide hydrochloride]	> 10 µM	> 10 µM	≤ 0.1 µM
CN[C@@H](C)C(=O)N[C@H](C(=O)N1CCC[C@H]1C(=O)Nc1cc2c(NCc3ccc(F)cc3F)ncnc2cc1OC)C(C)(C)C [Example 35, (S)—N-(4-(2,4-difluorobenzylamino)-7-methoxyquinazolin-6-yl)-1-((S)-3,3-dimethyl-2-((S)-2-(methylamino)propanamido)butanoyl)pyrrolidine-2-carboxamide hydrochloride]	> 10 µM	> 10 µM	≤ 0.1 µM
CN[C@@H](C)C(=O)N[C@H](C(=O)N1CCC[C@H]1C(=O)Nc1cc2c(Nc3ccc4[nH]ncc4c3)ncnc2cc1OC)C(C)(C)C [Example 54, (S)—N-(4-(1H-indazol-5-ylamino)-7-methoxyquinazolin-6-yl)-1-((S)-3,3-dimethyl-2-((S)-2-(methylamino)propanamido)butanoyl)pyrrolidine-2-carboxamide]	> 10 µM	> 10 µM	≤ 0.1 µM
CN[C@@H](C)C(=O)N[C@H](C(=O)N1CCC[C@H]1C(=O)Nc1cc2c(Nc3ccc4c(c3)CCC4)ncnc2cc1OC)C(C)(C)C [Example 52, (S)—N-(4-(2,3-dihydro-1H-inden-5-ylamino)-7-methoxyquinazolin-6-yl)-1-((S)-3,3-dimethyl-2-((S)-2-(methylamino)propanamido)butanoyl)pyrrolidine-2-carboxamide hydrochloride]	> 10 µM	> 10 µM	≤ 0.1 µM
CN[C@@H](C)C(=O)N[C@H](C(=O)N1CCC[C@H]1C(=O)Nc1cc2c(Nc3ccc4ccccc4c3)ncnc2cc1OC)C(C)(C)C [Example 32, (S)-1-((S)-3,3-dimethyl-2-((S)-2-(methylamino)propanamido)butanoyl)-N-(7-methoxy-4-(naphthalen-2-ylamino)quinazolin-6-yl)pyrrolidine-2-carboxamide]	> 10 µM	> 10 µM	≤ 0.1 µM
